Data on four molecules can be found in patent US20150025012A1, “METHODS AND COMPOSITIONS FOR IDENTIFICATION, ASSESSMENT AND TREATMENT OF CANCERS ASSOCIATED WITH HEDGEHOG SIGNALING” (Infinity Pharmaceuticals, Inc., priority 2010, published 2015).

Usually IC50 stands for the concentration needed to halve the response being measured.

Where a name gives a salt, the structure may show the parent alone.

The subject of one assay is Bx-PC3 tumors. As to the kind of experiment: Growth of Bx-PC3 tumors in mice. The class given is in vivo. The following applies: single agents and combination. An excerpt: Bevacizumab, a monoclonal antibody, exerts its activity by neutralizing VEGF, a factor important of the proliferation and survival of endothelial cells. […] In the same study, the relative effect of these agents was explored by measuring the mRNA expression of PECAM-1, a marker of endothelial cells and RGS5, a marker of pericytes. […] The role of the vasculature and its supporting pericyte population in the mechanism of action of IPI-926 continues to be explored.
For in vivo studies, tumors were grown in male NCR-nu/nu mice by subcutaneous injection of 5×10^6 cells. Tumor growth was monitored using calipers. When tumors reached an approximate size of 200 mm^3, tumor bearing animals were randomized into treatment arms and administered agents or vehicles as described.

The next assay concerns hedgehog pathway. The assay is described as follows: C3H10T1/2 alkaline phosphatase assay (Shh-dependent osteoblast differentiation). As to conditions: Mus musculus, C3H 10T1/2; HCl salt; sonic hedgehog 250 ng/ml; AP activity normalized against total protein; read-out: IC50 (antagonist of the hedgehog pathway). The class given is cell-based. An excerpt:
An exemplary assay to evaluate the activity of a hedgehog inhibitor is as follows. C3H10T1/2 cells differentiate into osteoblasts when contacted with the sonic hedgehog peptide (Shh-N). Upon differentiation, these osteoblasts produce high levels of alkaline phosphatase (AP) which can be measured in an enzymatic assay (Nakamura et al., 1997 BBRC 237: 465). Compounds that block the differentiation of C3H10T1/2 into osteoblasts (a Shh dependent event) can therefore be identified by a reduction in AP production (van der Horst et al., 2003 Bone 33: 899). The assay details are described below. Additional assays to ascertained the activity of hedgehog inhibitors, including IPI-926, are described in US 2009/0181997 by Grayzel et al., U.S. Ser. No. 61/327,373 and 61/331,365, filed on Apr. 23, 2010 and May 4, 2010, respectively; the entire contents of the aforesaid applications are incorporated herein by reference. […]
C3H10T1/2 cells were plated in 96 wells with a density of 8×10^3 cells/well. […] After incubating for 30 min at 37° C., the plates were read on an Envision plate reader at 405 nm. Total protein was quantified with a BCA protein assay kit from Pierce according to manufacturer's instructions. […]

The next assay relates to human SHh expression. The assay is described as follows: Hedgehog ligand expression in bladder cancer cells after chemotherapy. In kind it is cell-based. As to conditions: 24, 48, 72 hours, highest after 144 hours.

Take “Bevacizumab: a monoclonal antibody, exerts its activity by neutralizing VEGF”: the “activity on the growth of Bx-PC3 tumors” value in the assay on Bx-PC3 tumors is given as “approximately the same single agent activity”.
Take `CC1=C2C[C@H]3[C@@H](CC[C@@H]4C[C@H](NS(C)(=O)=O)CC[C@@]43C)[C@@H]2CC[C@@]2(C1)O[C@@H]1C[C@H](C)CN[C@H]1[C@H]2C` [IPI-926 (HCl salt)]: the IC50 with hedgehog pathway is below 20 nM.
For `Nc1ccn([C@@H]2O[C@H](CO)[C@@H](O)C2(F)F)c(=O)n1` [gemcitabine], in the assay with human SHh expression, the “human SHh expression” value was “increase”.
As for `COc1cccc2c1C(=O)c1c(O)c3c(c(O)c1C2=O)C[C@@](O)(C(=O)CO)C[C@@H]3O[C@H]1C[C@H](N)[C@H](O)[C@H](C)O1` [doxorubicin], in the assay on human SHh expression, the “human SHh expression” value was “increase”.
